Reference: patent publication US12404283B2, “c-MYC mRNA translation modulators and uses thereof in the treatment of cancer” (Anima Biotech Inc., priority 2022, dated 2025)

Test system: c-Myc
Test: c-Myc immunofluorescence assay
Format: cell-based, human
Conditions: A549 cells, 24 hours treatment, anti-c-Myc immunofluorescence
Summary of the method: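 High-content imaging (20×) of PFA-fixed A549 cells immunostained for c-Myc with DAPI nuclei, after 24 h compound treatment at increasing concentrations. Per-cell c-Myc signal in identified cell regions was plotted against dose and fitted by logistic regression to give EC50.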

| Structure (SMILES) | Myc Efficacy (−LogEC50) |
| --- | --- |
| CNC(=O)c1ccc(-c2cn3c(n2)sc2cc(C(=O)NCCCN4CCCC4)ccc23)cc1 [compound 310, 2-(4-(methylcarbamoyl)phenyl)-N-(3-(pyrrolidin-1-yl)propyl)benzo[d]imidazo [2,1-b]thiazole-7-carboxamide] | + (+ >3 and <5) |
| CNC(=O)c1ccc(-c2cn3c(n2)sc2cc(NC(=O)CCCN4CCCCC4)ccc23)cc1 [compound 312, N-methyl-4-(7-(4-(piperidin-1-yl)butanamido)benzo[d]imidazo[2,1-b]thiazol-2-yl)benzamide] | ++ (++ ≥5 and <6) |
| CCN(CC)CCCNC(=O)c1ccc2c(c1)sc1nc(-c3ccc(C4CCOCC4)cc3)cn12 [compound 314, N-(3-(diethylamino)propyl)-2-(4-(tetrahydro-2H-pyran-4-yl)phenyl)benzo[d]imidazo [2,1-b]thiazole-7-carboxamide] | + (+ >3 and <5) |
| O=C(NCCCN1CCCCC1)c1ccc2c(c1)sc1nc(-c3ccc(C4COC4)cc3)cn12 [compound 315, 2-(4-(oxetan-3-yl)phenyl)-N-(3-(piperidin-1-yl)propyl)benzo[d]imidazo [2,1-b]thiazole-7-carboxamide] | ++ (++ ≥5 and <6) |
| CNC(=O)c1ccc(-c2cn3c(n2)sc2cc(C(=O)NCCCN4CCCCC4)cnc23)cc1 [compound 317, 2-(4-(methylcarbamoyl)phenyl)-N-(3-(piperidin-1-yl)propyl)imidazo[2′,1′:2,3] thiazolo[4,5-b]pyridine-7-carboxamide] | + (+ >3 and <5) |
| CCN(CC)CCCNC(=O)c1ccc2c(c1)sc1nc(-c3ccc(C4(N)CC4)cc3)cn12 [compound 318, 2-(4-(1-aminocyclopropyl)phenyl)-N-(3-(diethylamino)propyl)benzo [d]imidazo[2,1-b]thiazole-7-carboxamide] | ++ (++ ≥5 and <6) |
| CNC(=O)c1ccc(-c2nc3sc4cc(C(=O)NCCCN5CCCCC5)ccc4n3n2)cc1 [compound 319, 2-(4-(methylcarbamoyl)phenyl)-N-(3-(piperidin-1-yl)propyl)benzo[4,5]thiazolo [3,2-b][1,2,4]triazole-6-carboxamide] | ++ (++ ≥5 and <6) |
| CNC(=O)c1ccc(-c2cn3c(n2)sc2cc(C(=O)NCCCN4CCC(F)CC4)ccc23)c(F)c1 [compound 320, 2-(2-fluoro-4-(methylcarbamoyl)phenyl)-N-(3-(4-fluoropiperidin-1-yl)propyl)benzo[d]imidazo [2,1-b]thiazole-7-carboxamide] | +++ (+++ ≥6) |
| CNC(=O)c1ccc(-c2cn3c(n2)sc2cc(C(=O)NCCCN4CCCC4)ccc23)c(F)c1 [compound 321, 2-(2-fluoro-4-(methylcarbamoyl)phenyl)-N-(3-(pyrrolidin-1-yl)propyl)benzo[d]imidazo [2,1-b]thiazole-7-carboxamide] | ++ (++ ≥5 and <6) |
| C#CCCC1(CCNC(=O)c2ccc(-c3cn4c(n3)sc3cc(C(=O)NCCCN(CC)CC)ccc34)cc2)N=N1 [compound 322, 2-(4-((2-(3-(but-3-yn-1-yl)-3H-diazirin-3-yl)ethyl)carbamoyl)phenyl)-N-(3-(diethylamino)propyl) benzo[d]imidazo[2,1-b] thiazole-7-carboxamide] | + (+ >3 and <5) |
| C#CCCC1(CCN(CC)CCCNC(=O)c2ccc3c(c2)sc2nc(-c4ccc(C(=O)NC)cc4)cn23)N=N1 [compound 323, N-(3-((2-(3-(but-3-yn-1-yl)-3H-diazirin-3-yl)ethyl)(ethyl)amino)propyl)-2-(4-(methylcarbamoyl)phenyl) benzo[d]imidazo[2,1-b]thiazole-7-carboxamide] | +++ (+++ ≥6) |
| C#CCCC1(CCN2CC[C@H](CNC(=O)c3ccc4c(c3)sc3nc(-c5ccc(C)cc5)cn34)C2)N=N1 [compound 324, (R)-N-((1-(2-(3-(but-3-yn-1-yl)-3H-diazirin-3-yl)ethyl)pyrrolidin-3-yl)methyl)-2-(p-tolyl)benzo[d]imidazo[2,1-b]thiazole-7-carboxamide] | ++ (++ ≥5 and <6) |
| C#CCCC1(CCN2CC[C@@H](CNC(=O)c3ccc4c(c3)sc3nc(-c5ccc(C)cc5)cn34)C2)N=N1 [compound 325, (S)-N-((1-(2-(3-(but-3-yn-1-yl)-3H-diazirin-3-yl)ethyl)pyrrolidin-3-yl)methyl)-2-(p-tolyl)benzo[d]imidazo[2,1-b]thiazole-7-carboxamide] | ++ (++ ≥5 and <6) |
| C#CCCC1(CCOc2ccccc2-c2cn3c(n2)sc2cc(C(=O)NCCCN4CCCCC4)ccc23)N=N1 [compound 326, 2-(2-(2-(3-(but-3-yn-1-yl)-3H-diazirin-3-yl)ethoxy)phenyl)-N-(3-(piperidin-1-yl)propyl)benzo[d]imidazo [2,1-b]thiazole-7-carboxamide] | ++ (++ ≥5 and <6) |
| C#CCCC1(CCOc2cccc(-c3cn4c(n3)sc3cc(C(=O)NCCCN(CC)CC)ccc34)c2)N=N1 [compound 327, 2-(3-(2-(3-(but-3-yn-1-yl)-3H-diazirin-3-yl)ethoxy)phenyl)-N-(3-(diethylamino)propyl)benzo [d]imidazo[2,1-b]thiazole-7-carboxamide] | + (+ >3 and <5) |
| CCN(CC)CCCNC(=O)c1ccc2c(c1)sc1nc(-c3ccc(C(=O)NC)cc3)nn12 [compound 328, N-(3-(diethylamino)propyl)-2-(4-(methylcarbamoyl)phenyl) benzo[4,5]thiazolo[3,2-b][1,2,4]triazole-6-carboxamide] | ++ (++ ≥5 and <6) |
| CNC(=O)c1ccc(-c2cn3c(n2)sc2cc(C(=O)N(C)CCCN4CCCCC4)ccc23)cc1 [compound 329, N-methyl-2-(4-(methylcarbamoyl)phenyl)-N-(3-(piperidin-1-yl)propyl)benzo[d]imidazo [2,1-b]thiazole-7-carboxamide] | + (+ >3 and <5) |
| CCN(CC)CCCNC(=O)c1ccc2c(c1)sc1nc(-c3ccncn3)cn12 [compound 330, N-(3-(diethylamino)propyl)-2-(pyrimidin-4-yl)benzo[d]imidazo[2,1-b]thiazole-7-carboxamide] | + (+ >3 and <5) |
| CCN(CC)CCCNC(=O)c1ccc2c(c1)sc1nc(-c3ccc(CNC4CC4)cc3F)cn12 [compound 331, 2-(4-((cyclopropylamino)methyl)-2-fluorophenyl)-N-(3-(diethylamino)propyl)benzo [d]imidazo[2,1-b]thiazole-7-carboxamide] | +++ (+++ ≥6) |
| CCN(CC)CCCN(C)C(=O)c1ccc2c(c1)sc1nc(-c3ccc(C(=O)NC)cc3F)cn12 [compound 333, N-(3-(diethylamino)propyl)-2-(2-fluoro-4-(methylcarbamoyl)phenyl)-N-methylbenzo[d]imidazo[2,1-b]thiazole-7-carboxamide] | + (+ >3 and <5) |
| CCN(CC)CCCNC(=O)c1ccc2c(c1)sc1nc(-c3cc(F)c(CNC4CC4)cc3F)cn12 [compound 334, 2-(4-((cyclopropylamino)methyl)-2,5-difluorophenyl)-N-(3-(diethylamino)propyl)benzo [d]imidazo[2,1-b]thiazole-7-carboxamide] | ++ (++ ≥5 and <6) |
| CCN(CC)CCCNC(=O)c1ccc2c(c1)sc1nc(-c3ccc(CN)cc3)nn12 [compound 348, 2-(4-(aminomethyl)phenyl)-N-(3-(diethylamino)propyl)benzo [4,5]thiazolo[3,2-b][1,2,4]triazole-6-carboxamide] | ++ (++ ≥5 and <6) |
| CCNCCCNC(=O)c1ccc2c(c1)sc1nc(-c3ccc(C(=O)NC)cc3F)cn12 [compound 362, N-(3-(ethylamino)propyl)-2-(2-fluoro-4-(methylcarbamoyl)phenyl) benzo[d]limidazo[2,1-b]thiazole-7-carboxamide] | ++ (++ ≥5 and <6) |
| CNC(=O)c1ccc(-c2cn3c(n2)sc2cc(C(=O)NC4CCNCC4)ccc23)c(F)c1 [compound 363, 2-(2-fluoro-4-(methylcarbamoyl)phenyl)-N-(piperidin-4-yl)benzo[d]imidazo[2,1-b]thiazole-7-carboxamide] | ++ (++ ≥5 and <6) |
| CNC(=O)c1ccc(-c2cn3c(n2)sc2cc(NC(=O)C4CCNCC4)ccc23)c(F)c1 [compound 364, N-(2-(2-fluoro-4-(methylcarbamoyl)phenyl)benzo[d]imidazo[2,1-b]thiazol-7-yl)piperidine-4-carboxamide] | ++ (++ ≥5 and <6) |
| CCN(CC)CCCC(=O)Nc1ccc2c(c1)sc1nc(-c3ccc(C(=O)NC)cc3F)cn12 [compound 365, 4-(7-(4-(diethylamino)butanamido)benzo[d]imidazo[2,1-b]thiazol-2-yl)-3-fluoro-N-methylbenzamide] | ++ (++ ≥5 and <6) |
| O=C(NCCCN1CCCCC1)c1ccc2c(c1)sc1nc(-c3ccc(CNC4CC4)cc3F)cn12 [compound 368, 2-(4-((cyclopropylamino)methyl)-2-fluorophenyl)-N-(3-(piperidin-1-yl)propyl)benzo[d]imidazo [2,1-b]thiazole-7-carboxamide] | +++ (+++ ≥6) |
| NCc1ccc(-c2cn3c(n2)sc2cc(C(=O)NCCCN4CCCCC4)ccc23)c(Cl)c1 [compound 369, 2-(4-(aminomethyl)-2-chlorophenyl)-N-(3-(piperidin-1-yl)propyl)benzo[d]imidazo [2,1-b]thiazole-7-carboxamide] | +++ (+++ ≥6) |
| NCc1ccc(-c2cn3c(n2)sc2cc(C(=O)NCCCN4CCCCC4)ccc23)c(C2CC2)c1 [compound 370, 2-(4-(aminomethyl)-2-cyclopropylphenyl)-N-(3-(piperidin-1-yl)propyl)benzo[d]imidazo [2,1-b]thiazole-7-carboxamide] | +++ (+++ ≥6) |
| NCc1ccc(-c2cn3c(n2)sc2cc(C(=O)NCCCN4CCCCC4)ccc23)c(C(F)F)c1 [compound 371, 2-(4-(aminomethyl)-2-(difluoromethyl)phenyl)-N-(3-(piperidin-1-yl)propyl)benzo[d]imidazo [2,1-b]thiazole-7-carboxamide] | ++ (++ ≥5 and <6) |
